In test [1] the test system is SK-MEL-28 and LN-met cell lines. Briefly: cDNA microarray analysis of differentially regulated genes. It is filed as cell-based, human. The settings on record: SK-MEL-28 and LN-met after 2 days BQ788, confirmed by real-time RT-PCR. The method, then: Cells were cultured in the presence of BQ788 or its solvent (HCO60) for 2 days and then lysed and subjected to RNA extraction using SV Total RNA isolation kit (Promega). Two rounds of RNA amplification were conducted using RiboAmp™ RNA Amplification kit (Arcturus). Labeled cDNA was obtained by reverse transcription of 6 μl amplified RNA and incorporation of Cy3-dCTP (5-Amino-propargyl-2′-dexoycytidine 5′-triphosphate coupled to Cy3 fluorescent dye) and Cy5-dCTP (5-Amino-propargyl-2′-dexoycytidine 5′-triphosphate coupled to Cy5 fluorescent dye) (Amersham Biosciences). Human 10k arrays containing PCR products spotted onto glass slides were obtained from the Lausanne DNA Array Facility (DAF). Hybridization of labeled cDNA to microarrays was preformed for 16 h at 64° C. in a humidified chamber (Corning Costar). Scanning was done in a Scanarray 4000 scanner (Perkin Elmer). Image analysis was preformed using the ScanAlyse program (version 2.5). Data analysis was done using the R package: Statistics for Microarray analysis containing com.braju.sma package (www.r-project.org).
To explore the possible mechanisms that underlie the loss of viability of metastatic but not primary melanoma cells in response to ETRB antagonism, changes in gene expression profiles of BQ788-treated and untreated cells were investigated by cDNA microarray analysis. […]
On the technique in general: Real-time PCR tracks product formation cycle by cycle.

Test [2] has as its system Cut-met line. Briefly: Apoptosis detection ELISA (histone-associated DNA fragments). It is filed as cell-based, human. The settings on record: BQ788 5 days. How it is done: (§1) Cells were plated in 24 wells plate in 500 μl medium and cultured for 5 days in the presence of BQ788 or solvent. A cell death detection ELISA PLUS kit (Roche) designed to reveal histone-180 bp DNA fragment complexes of nucleosomes was used to measure apoptosis. Briefly, cells floating in the supernatants and those attached to the dish were incubated in lysis buffer for 30 min. in room temperature (RT). After spinning for 10 min at 200 g, the DNA content of each sample was determined. 20 μl containing equal amounts of DNA were added to each well (3 wells per condition) coated with anti-histone antibody and incubated with additional 80 μl anti-DNA peroxidase immunogen under gentle shaking conditions for 2 h at RT. After washing and revelation with peroxidase substrate the samples OD were measured at 405 nm against substrate containing wells as blank.
(§2) Because BCL-2A1 and PARP are known regulators of apoptosis (Smulson, et al., Roles of poly(ADP-ribosyl)ation and PARP in apoptosis, DNA repair, genomic stability and functions of p53 and E2F-1, Adv. Enzyme Regul., 40:183-215 (2000); Vander Heiden, et al., Bcl-2 proteins: regulators of apoptosis or of mitochondrial homeostasis?, Nat. Cell Biol., 1:E209-E216, (1999)), we used an apoptosis detection ELISA that detects histone-associated DNA fragments to measure apoptotic cell death in the different cell lines treated with BQ788.
For orientation: In an ELISA, binding on a coated surface is turned into a signal by an enzyme label.

In test [3] the test system is LN-met. The description is as above. It counts as cell-based, human. The settings on record: BQ788 5 days. The method, then: as §1, §2
For test [4], the system named is SK-MEL-28. The test is described as above. It is filed as cell-based, human. The settings on record: BQ788 5 days. The method, then: as §1, §2
Test [5] has as its system primary melanoma cells. Described as above. It counts as cell-based, human. Particulars: BQ788 5 days. The method, then: as §1, §2
Test [6] deals with caspase 3. Kind of test: Western blot for caspase 3 activation. It is filed as cell-based. The settings on record: BQ788-treated melanoma cells; data not shown. The source says:
Down-regulation of BCL2-A1 results in caspase 9 activation but not caspase 3 or 8 cleavage (Duriez, et al., A1 functions at the mitochondria to delay endothelial apoptosis in response to tumor necrosis factor, J. Biol. Chem., 275:18099-18107 (2000); Pagliari, et al., Macrophages require constitutive NF-kappaB activation to maintain A1 expression and mitochondrial homeostasis, Mol. Cell Biol., 20:8855-8865 (2000)). […] Whether caspase 6 activation occurs via reduction in BCL-2A1 expression or by alternative pathways remains to be determined.
(Immunoblotting shows a protein as a band on a membrane.)

The subject of test [7] is tumors derived from a human melanoma cell line grown in nude mice. Briefly: Anti-CD31 immunohistochemistry of tumor sections (angiogenesis). It counts as in vivo. Particulars: tumors injected with BQ788 vs vehicle. How it is done:
Equal amounts of RNA from cells that were treated with BQ788 for 3 days were subjected to real-time RT-PCR analysis for the detection VEGF (A), HIF-1α (B) and Gravin (C) transcripts. Differences in expression levels are shown as x fold change and are statistically significant (p<0.05) unless a column in marked as non significant (N.S.). Sections of two representative tumors derived from a human melanoma cell line grown in nude mice and injected either with vehicle (D) or BQ788 (E) were stained with anti CD-31 to highlight blood vessels (brown staining, Lahav et al, 1999).
The relationship between the expression patterns of VEGF and GRAVIN is consistent with that observed in astrocytes, where GRAVIN down-regulates VEGF expression (Lee, et al., SSeCKS regulates angiogenesis and tight junction formation in blood-brain barrier, Nat. Med., 9:900-906 (2003)). In the present study we observed, at least for the most sensitive cell lines, LN-met and SK-MEL-28, that down-regulation of GRAVIN correlates with induction of VEGF. We therefore analyzed tissue sections of tumors derived from a human melanoma cell line grown in nude mice and injected with BQ788 for signs of changes in angiogenesis (Lahav, et al., An endothelin receptor B antagonist inhibits growth and induces cell death in human melanoma cells in vitro and in vivo, Proc. Natl. Acad. Sci. U.S.A., 96:11496-11500 (1999)).

Test [8] shares this test system. The settings on record: cited from earlier work.

The values below come from US20060094676A1, “Compositions and methods for treating cancer using compositions comprising an inhibitor of endothelin receptor activity” (priority 2004, published 2006).

“Also recorded” adds a separate entry of the source.

For `CCCC[C@@H](NC(=O)[C@@H](Cc1cn(C(=O)OC)c2ccccc12)NC(=O)[C@H](CC(C)(C)C)NC(=O)N1[C@H](C)CCC[C@@H]1C)C(=O)O` [BQ788, N-cis-2,6-dimethylpiperidinocarbonyl-L-γ-methylleucyl-D-1-methoxycarbonyltrptophanyl-D-norleucine], the Down regulated gene entry in test [1] was “BCL2-A1; also recorded: PARP-3; also recorded: Gravin; also recorded: EDNRB”. The Up regulated gene entry in test [1] was “VEGF and HIF-1α”. For the same compound, the apoptosis level result in test [2] is recorded as “slight increase”; in test [3], “intermediate level”; in test [4] it was “highest induction”; in test [5], “did not display apoptosis”. Also, the “caspase 3 activation” value in test [6] is recorded as “did not reveal caspase 3 activation”. The “angiogenesis in tumors (anti-CD31 staining)” value in test [7] is listed as “clear increase in angiogenesis”. Besides, in test [8] (human melanoma tumors in nude mice injected with BQ788), the tumor growth result was “inhibition of growth”. Also, in test [8] (tumors treated systemically, nude mice), the tumor size result is listed as “shrinkage of tumors”.
